Experimental data published in patent US11161826B2, “Manufacturing methods and polymorphs of a thiazoline anti-hyperalgesic agent” (ACADIA PHARMACEUTICALS INC., priority 2019, dated 2021).
Where a name gives a salt, the structure may show the parent alone.

Tests used:
Format in all cases: physicochemical
[1] = Gravimetric Vapor Sorption (GVS)
Source text: The sample is hygroscopic.

[2] = Thermogravimetric Analysis (TGA) decomposition
Source text: The combined DSC/TGA results for (R)-2-(2-hydroxyphenylamino)-5,5-dimethyl-4,5-dihydrothiazole-4-carboxylic acid mono-hydrochloride is provided in FIG. 7. […] An amorphous form of Compound 1 can be made by, for example, lyophilizing crystalline Compound 1 as described in Example 4 herein.

[3] = Solubility in organic/aqueous solvents

hygroscopicity ([1]; GVS): hygroscopic
GVS uptake ([1]; between 0% and 90% RH): 6%
TGA start of decomposition (total 5% mass loss) [2]: ~202 °C
solubility ([3]; 10% water/tetrahydrofuran): sparingly soluble
solubility ([3]; 10% water:iso-propyl acetate): sparingly soluble
solubility ([3]; acetone): less than sparingly soluble
solubility ([3]; ethanol): sparingly soluble
solubility ([3]; ethyl acetate): less than sparingly soluble
solubility ([3]; iso-propanol): sparingly soluble
solubility ([3]; iso-propyl acetate): less than sparingly soluble
solubility ([3]; methanol): freely soluble
solubility ([3]; n-heptane): less than sparingly soluble
solubility ([3]; tert-butyl alcohol): less than sparingly soluble
solubility ([3]; tert-butyl alcohol:water (1:1)): freely soluble
solubility ([3]; tert-butyl methyl ether): less than sparingly soluble
solubility ([3]; tetrahydrofuran): less than sparingly soluble
solubility ([3]; toluene): less than sparingly soluble
solubility ([3]; water): sparingly soluble
SMILES: CC1(C)SC(Nc2ccccc2O)=N[C@@H]1C(=O)O [Compound 1, (R)-2-(2-hydroxyphenylamino)-5,5-dimethyl-4,5-dihydrothiazole-4-carboxylic acid mono-hydrochloride]
